pIC50: −log10 of the molar value.
Each molecule was assayed against T1, HIV integrase (Human immunodeficiency virus type 1 group M subtype B, UniProt P12497, F1332H) (assay: Determination of enzyme (HIV integrase) inhibitory activity). Conditions: recombinant HIV integrase (F185H), strand transfer ELISA, absorbance at 450 nm.
T1 construct: HIV integrase full length gene; made in house; host or cells: Escherichia coli BL21(DE3), plasmid pET21a-INH
Format: biochemical
Text: The following explains evaluation methods of the HIV integrase inhibitory activity of the compound of the present invention.
(i) Construction of Recombinant Integrase Gene Expression System
The 185th phenylalanine of HIV integrase full length gene (J. Virol., 67, 425–437 (1993)) was substituted by histidine and inserted into the restriction enzyme NdeI and XhoI sites of plasmid pET21a(+) (Novagen), whereby an integrase expression vector pET21a-INH was constructed.
(ii) Production and Purification of Integrase Protein
Escherichia coli recombinant BL21(DE3) transformed with plasmid pET21a-INH obtained in (i) was shake cultured at 37° C. in a liquid medium containing ampicillin. When the culture reached the logarithmic growth phase, isopropyl-β-D-thiogalactopyranoside was added to promote expression of integrase gene. The culture was continued for 3 hr to promote accumulation of the integrase protein. The recombinant E. coli was collected in pellets by centrifugal separation and preserved at −80° C.
The E. coli was suspended in Lysis buffer (20 mM HEPES (pH 7.5), 5 mM DTT, 10 mM CHAPS, 10% glycerol) containing 1M sodium chloride and subjected to repeat pressurization and depressurization for rupture, and centrifugal separation at 4° C., 40,000×g, 60 min to recover a water-soluble fraction (supernatant). This was diluted 10-fold with Lysis buffer free of sodium chloride, mixed with SP-Sepharose (Pharmacia Corporation) and stirred at 4° C. for 30 min to allow adsorption of integrase protein to the resin. The resin was washed with Lysis buffer containing 100 mM sodium chloride and the integrase protein was eluted with Lysis buffer containing 1M sodium chloride.
The eluted integrase protein solution was applied to a Superdex 75 (Pharmacia Corporation) column for gel filtration. The protein was eluted with Lysis buffer containing 1M sodium chloride.
The obtained fractions of the integrase protein were collected and preserved at −80° C.
(iii) Preparation of DNA Solution
The following DNA synthesized by Greiner was dissolved in TE buffer (10 mM Tris-hydrochloric acid (pH 8.0), 1 mM EDTA) and mixed with donor DNA, target DNA, and each complementary strand (+ and − strands) to 1 μM. The mixture was heated at 95° C. for 5 min, 80° C. for 10 min, 70° C. for 10 min, 60° C. for 10 min, 50° C. for 10 min and 40° C. for 10 min and preserved at 25° C. to give a double stranded DNA, which was used for the test.
Donor DNA (− strand having biotin attached to the 5′ terminal)
(iv) Determination of Enzyme (HIV Integrase) Inhibitory Activity
The donor DNA was diluted with TE buffer to 10 nM, of which 50 μl was added to each well of streptavidin-coated microtiter plate (Roche) and allowed to adsorb at 37° C. for 60 min. The DNA was washed with phosphate buffer (Dulbecco PBS, Sanko Junyaku Co., Ltd.) containing 0.1% Tween 20 and phosphate buffer. Then, a reaction mixture (70 μl) having the following composition, a test substance (10 μl) diluted with the reaction mixture and 100 μg/ml integrase protein (10 μl) were added to each well and reacted at 37° C. for 60 min.
Composition of the reaction mixture: 30 mM MOPS (3-morpholinopropanesulfonic acid), 5 mM magnesium chloride, 3 mM DTT (dithiothreitol), 0.1 mg/ml BSA (bovine serum albumin), 5% glycerol, 10% DMSO (dimethyl sulfoxide), 0.01% Tween 20.
Then, 50 nM target DNA (10 μl) was added, reacted at 37° C. for 10 min and washed with phosphate buffer containing 0.1% Tween 20 to stop the reaction.
Then, 100 mU/ml peroxidase labeled anti-digoxigenin antibody solution (Roche, 100 μl) was added, and the mixture was reacted at 30° C. for 60 min, followed by washing with phosphate buffer containing 0.1% Tween 20.
A peroxidase color solution (Bio Rad, 100 μl) was added and allowed to react at room temperature for 4 min. The color reaction was stopped by adding 1N sulfuric acid (100 μl). The absorbance at 450 nm was measured. […]

SMILES | pIC50
CSCc1cc(=O)c(O)c2n1CCN(Cc1ccc(Cl)c(Cl)c1)C2=O [Example 30, 2-(3,4-dichlorobenzyl)-9-hydroxy-6-methylsulfanylmethyl-3,4-dihydro-2H-pyrido[1,2-a]pyrazine-1,8-dione] | 7.00 to 8.00
CS(=O)(=O)Cc1cc(=O)c(O)c2n1CCN(Cc1ccc(Cl)c(Cl)c1)C2=O [Example 31, 2-(3,4-dichlorobenzyl)-9-hydroxy-6-methanesulfonylmethyl-3,4-dihydro-2H-pyrido[1,2-a]pyrazine-1,8-dione] | 7.00 to 8.00
CS(=O)(=O)CCC1CN(Cc2ccc(Cl)c(Cl)c2)C(=O)c2c(O)c(=O)ccn21 (stereo not shown) [Example 32, 2-(3,4-dichlorobenzyl)-9-hydroxy-4-(2-methanesulfonylethyl)-3,4-dihydro-2H-pyrido[1,2-a]pyrazine-1,8-dione] | 7.00 to 8.00
CSCCC1CN(Cc2ccc(Cl)c(Cl)c2)C(=O)c2c(O)c(=O)ccn21 (stereo not shown) [Example 33, 2-(3,4-dichlorobenzyl)-9-hydroxy-4-(2-methylsulfanylethyl)-3,4-dihydro-2H-pyrido[1,2-a]pyrazine-1,8-dione] | 7.00 to 8.00
COC(=O)c1cc(=O)c(O)c2n1CCN(Cc1ccc(Cl)c(Cl)c1)C2=O [Example 34, methyl 2-(3,4-dichlorobenzyl)-9-hydroxy-1,8-dioxo-1,3,4,8-tetrahydro-2H-pyrido[1,2-a]pyrazine-6-carboxylate] | 7.00 to 8.00
CC(=O)c1cc(=O)c(O)c2n1CCN(Cc1ccc(Cl)c(Cl)c1)C2=O [Example 35, 6-acetyl-2-(3,4-dichlorobenzyl)-9-hydroxy-3,4-dihydro-2H-pyrido[1,2-a]pyrazine-1,8-dione] | 7.00 to 8.00
CC(C)SCc1cc(=O)c(O)c2n1CCN(Cc1ccc(Cl)c(Cl)c1)C2=O [Example 36, 2-(3,4-dichlorobenzyl)-9-hydroxy-6-isopropylsulfanylmethyl-3,4-dihydro-2H-pyrido[1,2-a]pyrazine-1,8-dione] | 7.00 to 8.00
CC(C)S(=O)(=O)Cc1cc(=O)c(O)c2n1CCN(Cc1ccc(Cl)c(Cl)c1)C2=O [Example 37, 2-(3,4-dichlorobenzyl)-9-hydroxy-6-isopropylsulfonylmethyl-3,4-dihydro-2H-pyrido[1,2-a]pyrazine-1,8-dione] | 7.00 to 8.00
CC(C)OCc1cc(=O)c(O)c2n1CCN(Cc1ccc(Cl)c(Cl)c1)C2=O [Example 38, 2-(3,4-dichlorobenzyl)-9-hydroxy-6-isopropoxymethyl-3,4-dihydro-2H-pyrido[1,2-a]pyrazine-1,8-dione] | 7.00 to 8.00
CC(C)COCc1cc(=O)c(O)c2n1CCN(Cc1ccc(Cl)c(Cl)c1)C2=O [Example 39, 2-(3,4-dichlorobenzyl)-9-hydroxy-6-isobutoxymethyl-3,4-dihydro-2H-pyrido[1,2-a]pyrazine-1,8-dione] | 7.00 to 8.00
CC(O)c1cc(=O)c(O)c2n1CCN(Cc1ccc(Cl)c(Cl)c1)C2=O (stereo not shown) [Example 40, 2-(3,4-dichlorobenzyl)-9-hydroxy-6-(1-hydroxyethyl)-3,4-dihydro-2H-pyrido[1,2-a]pyrazine-1,8-dione] | 7.00 to 8.00
O=C1c2c(O)c(=O)cc(COc3ccccc3)n2CCN1Cc1ccc(Cl)c(Cl)c1 [Example 41, 2-(3,4-dichlorobenzyl)-9-hydroxy-6-phenoxymethyl-3,4-dihydro-2H-pyrido[1,2-a]pyrazine-1,8-dione] | 7.00 to 8.00
O=C1c2c(O)c(=O)ccn2CCN1Cc1ccc(F)cc1 [Example 42, 2-(4-fluorobenzyl)-9-hydroxy-3,4-dihydro-2H-pyrido[1,2-a]pyrazine-1,8-dione] | 7.00 to 8.00
O=C1c2c(O)c(=O)ccn2CCN1Cc1cccc(Cl)c1 [Example 43, 2-(3-chlorobenzyl)-9-hydroxy-3,4-dihydro-2H-pyrido[1,2-a]pyrazine-1,8-dione] | 7.00 to 8.00
O=C1c2c(O)c(=O)ccn2CCN1Cc1ccccc1 [Example 44, 2-benzyl-9-hydroxy-3,4-dihydro-2H-pyrido[1,2-a]pyrazine-1,8-dione] | 6.00 to 7.00
O=C1c2c(O)c(=O)ccn2CCN1Cc1ccc(Cl)cc1 [Example 45, 2-(4-chlorobenzyl)-9-hydroxy-3,4-dihydro-2H-pyrido[1,2-a]pyrazine-1,8-dione] | 7.00 to 8.00

From US7211572B2 (Japan Tobacco Inc., priority 2003, dated 2007)
